SMILES strings stand for the structures.

For this assay, the system named is Heterozygous transgenic mice carrying the human SOD-1 (G93A). Nature of the assay: Murine model of familial ALS (FALS): monitoring for limb paralysis and death, life-table analysis. The assay is classed as in vivo. As to conditions: 16 mg/kg twice a day, everyday except weekends. The method, then:
Heterozygous transgenic mice carrying the human SOD-1 (G93A) were obtained from Jackson Laboratory (Bar Harbor, Me., USA). These mice were monitored everyday for limbic paralysis and death. Onset of FALS was defined as the first day upon which limbic paralysis was observed. Life-table analysis was performed using Statview, Abacus Concepts, Inc. (Berkeley, Calif.).
There are currently several transgenic animal models of ALS (Borchelt et al., 1998, Transgenic mouse models of Alzheimer's disease and amyotrophic lateral sclerosis, Brain Pathology, 8: 735-757). The G93A HuSOD1 is a well established animal model of familial ALS which has been described previously in detail (Dal Canto M C, Gurney Me., 1994, The development of central nervous system pathology in a murine transgenic model of human amyotrophic lateral sclerosis. Am J. Pathol 145: 1-9; Gurney et al., 1994, Motor neuron degeneration in mice that express a human Cu,Zn superoxide dismutase mutation, Science 264:1772-1775). Levels of SOD1 activity are elevated to about five times above that of endogenous SOD 1 in these mice. In this model, the mice develop hind limb weakness, a coarse coat, poor grooming, and reduced stride length at about 3 months of age. By five months of age, a majority of the mice are moribund.
Heterozygous transgenic mice carrying the human SOD-1 (G93A) were obtained from Jackson Laboratory (Bar Harbor, Me., USA). The mice were treated either with vehicle or genistein at 16 mg/kg twice a day, everyday, except on weekends. The mice were monitored everyday for limb paralysis and death. Onset of FALS was defined as the first day upon which limbic paralysis was observed. Life-table analysis was performed using Statview, Abacus Concepts, Inc. (Berkeley, Calif.). […]
The ability of 4-(4′-hydroxylphenyl)-amino-6,7-dimethoxyquinazoline (P131) and 2,4,4′-trihydroxy deoxybenzoin (DDE-17) to protect against neural degeneration in familial ALS was evaluated using the methods described above for Example 2. […]

[1] abbreviates: male FALS mice, compared with vehicle-treated males.

In the case of `O=c1c(-c2ccc(O)cc2)coc2cc(O)cc(O)c12` [Genistein, genistein], the “disease onset (first day upon which limbic paralysis was observed)” value (female FALS mice, compared with untreated (vehicle) females) was “did not exhibit a delay”. Under setting [1], the “disease onset (first day upon which limbic paralysis was observed)” value was “delayed” and the mortality entry was “delayed”.

These data come from US6592845B2, “Estrogens for treating ALS” (Parker Hughes Institute, priority 1999, dated 2003).
